The source of these data is US8987273B2, “Substituted imidazo[1,2-B]pyridazines” (Bayer Intellectual Property GmbH, priority 2010, dated 2015).

The IC50 is the concentration that gives 50% inhibition.

Molecules are shown by their SMILES. Counter-ions that a name gives are not always drawn.

In experiment [1] the test system is KPL-4 cells. Nature of the experiment: Tumor cell proliferation assay (CellTiter-Glo). The note with it: KPL4; 72 h drug exposure. It counts as cell-based. As to the method:
Compounds were tested in a cell-based assay that measures the capacity of the compounds to inhibit tumour cell proliferation following a 72 h drug exposure. Cell viability is determined using CellTiter-Glow® (CTG, Promega, cat# G757112/3). The CellTiter-Glo® Luminescent Cell Viability Assay is a homogeneous method to determine the number of viable cells in culture. Detection is based on using the luciferase reaction to measure the amount of ATP from viable cells. The amount of ATP in cells correlates with cell viability. Within minutes after a loss of membrane integrity, cells lose the ability to synthesize ATP, and endogenous ATPases destroy any remaining ATP; thus the levels of ATP fall precipitously.
Cells were plated at 3000-5000 cells/well (depending on the cell lines) in 90 μL growth medium on MTPs (Corning; #3603, black plate, clear flat bottom). For each cell line assayed, cells were plated onto a separate plate for determination of […] at t=0 hour and t=72 hour time points. Following overnight incubation at 37° C., chemiluminescence values for the t=0 samples were determined after adding 10 μl medium and 100 μl CTG solution according to manufacture protocol. Plates for the t=72 hour time points were treated with compounds diluted into growth medium at ten times final concentration added in 10 μL to the cell culture plate. Cells were then incubated for 72 hours at 37° C. Chemiluminescence values for the t=72 hour samples were determined. For data analysis, briefly, data from 24 h plate where used to reflect 100% inhibition of growth (“Ci”) and DMSO control for uninhibited growth (“C0”) and analyzed using MTS software package for IC50 and Hill coefficient. Experiments were controlled using a reference compound as standard.

Experiment [2] deals with His-tagged human recombinant kinase full-length Akt2 (Homo sapiens (Human), UniProt P31751). Nature of the experiment: Akt2 kinase assay (TR-FRET). It counts as biochemical. The note with it: 10 μM ATP; median. The source says: Akt2 inhibitory activity of compounds of the present invention was quantified employing the Akt2 TR-FRET assay as described in the following paragraphs.
Sequence of His-tagged human recombinant kinase full-length Akt2 (P31751 whole entry): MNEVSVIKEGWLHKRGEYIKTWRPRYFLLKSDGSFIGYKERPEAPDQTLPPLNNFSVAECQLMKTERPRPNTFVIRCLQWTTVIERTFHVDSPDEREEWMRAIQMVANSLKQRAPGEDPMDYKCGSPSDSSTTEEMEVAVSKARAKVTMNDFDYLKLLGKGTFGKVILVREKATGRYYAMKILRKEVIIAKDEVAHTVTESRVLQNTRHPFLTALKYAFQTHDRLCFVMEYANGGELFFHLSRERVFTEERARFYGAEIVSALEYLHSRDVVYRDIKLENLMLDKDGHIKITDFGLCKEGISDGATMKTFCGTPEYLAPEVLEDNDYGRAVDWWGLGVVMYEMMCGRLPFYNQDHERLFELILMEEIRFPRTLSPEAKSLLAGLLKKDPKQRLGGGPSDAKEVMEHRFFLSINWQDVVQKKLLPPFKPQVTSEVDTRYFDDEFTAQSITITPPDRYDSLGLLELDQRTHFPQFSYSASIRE
His-tagged human recombinant kinase full-length Akt2 expressed in insect cells and activated by PDK1 was purchased form Invitrogen (part number PV 3975). As substrate for the kinase reaction the biotinylated peptide biotin-Ahx-[…] (C-terminus in amide form) was used which can be purchased e.g. from the company Biosynthan GmbH (Berlin-Buch, Germany).
(§1) For the assay 50 nl of a 100 fold concentrated solution of the test compound in DMSO was pipetted into a black low volume 384 well microtiter plate (Greiner Bio-One, Frickenhausen, Germany), 2 μl of a solution of Akt2 in assay buffer [50 mM TRIS/HCl pH 7.5, 5 mM MgCl2, 1 mM dithiothreitol, 0.02% (v/v) Triton X-100 (Sigma)] were added and the mixture was incubated for 15 min at 22° C. to allow pre-binding of the test compounds to the enzyme before the start of the kinase reaction. Then the kinase reaction was started by the addition of 3 μl of a solution of adenosine-tri-phosphate (ATP, 16.7 μM=>final conc. in the 5 μl assay volume is 10 μM) and substrate (1.67 μM=>final conc. in the 5 μl assay volume is 1 μM) in assay buffer and the resulting mixture was incubated for a reaction time of 60 min at 22° C. The concentration of Akt2 in the assay was adjusted depending of the activity of the enzyme lot and was chosen appropriate to have the assay in the linear range, typical enzyme concentrations were in the range of about 0.2 ng/μl (final conc. in the 5 μl assay volume).
The reaction was stopped by the addition of 5 μl of a solution of HTRF detection reagents (200 nM streptavidine-XL665 [Cisbio] and 1.5 nM anti-phosho-Serine antibody [Millipore, cat. #35-001] and 0.75 nM LANCE Eu-W 1024 labeled anti-mouse IgG antibody [Perkin Elmer]) in an aqueous EDTA-solution (100 mM EDTA, 0.1%/w/v\ bovine serum albumin in 50 mM HEPES/NaOH pH 7.5).
(§2) The resulting mixture was incubated 1 h at 22° C. to allow the binding of the biotinylated phosphorylated peptide to the streptavidine-XL665 and the antibodies. Subsequently the amount of phosphorylated substrate was evaluated by measurement of the resonance energy transfer from the anti-mouse-IgG-Eu-Chelate to the streptavidine-XL665. Therefore, the fluorescence emissions at 620 nm and 665 nm after excitation at 350 nm was measured in a TR-FRET reader, e.g. a Rubystar (BMG Labtechnologies, Offenburg, Germany) or a Viewlux (Perkin-Elmer). The ratio of the emissions at 665 nm and at […] was taken as the measure for the amount of phosphorylated substrate. The data were normalised (enzyme reaction without inhibitor=0% inhibition, all other assay components but no enzyme=100% inhibition).
A general note: Time-resolved FRET reads energy transfer from a long-lived donor to a nearby acceptor.

For experiment [3], the target named is His-tagged human recombinant kinase full-length Akt1 (Homo sapiens (Human), UniProt P31749). The experiment in a line: Akt1 kinase assay (TR-FRET). The settings on record: 10 μM ATP; median. It counts as biochemical.
Sequence of His-tagged human recombinant kinase full-length Akt1 (P31749 whole entry): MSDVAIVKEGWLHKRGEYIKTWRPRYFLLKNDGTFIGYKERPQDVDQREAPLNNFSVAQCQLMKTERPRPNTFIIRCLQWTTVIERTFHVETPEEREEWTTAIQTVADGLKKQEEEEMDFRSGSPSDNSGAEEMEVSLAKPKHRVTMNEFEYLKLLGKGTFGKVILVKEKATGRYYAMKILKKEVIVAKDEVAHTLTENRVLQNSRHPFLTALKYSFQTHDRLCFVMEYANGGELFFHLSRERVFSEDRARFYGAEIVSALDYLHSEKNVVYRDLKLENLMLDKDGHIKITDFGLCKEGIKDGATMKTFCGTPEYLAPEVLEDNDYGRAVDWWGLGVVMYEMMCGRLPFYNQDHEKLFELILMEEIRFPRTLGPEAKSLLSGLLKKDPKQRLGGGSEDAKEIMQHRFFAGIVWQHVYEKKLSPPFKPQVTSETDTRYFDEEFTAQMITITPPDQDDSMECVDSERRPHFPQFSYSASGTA
From the text: Akt1 inhibitory activity of compounds of the present invention was quantified employing the Akt1 TR-FRET assay as described in the following paragraphs. His-tagged human recombinant kinase full-length Akt1 expressed in insect cells was purchased form Invitrogen (part number PV 3599). As substrate for the kinase reaction the biotinylated peptide biotin-Ahx-[…] (C-terminus in amide form) was used which can be purchased e.g. from the company Biosynthan GmbH (Berlin-Buch, Germany).
as §1, with “Akt1” for “Akt2”, “0.05” for “0.2”
The reaction was stopped by the addition of 5 μl of a solution of HTRF detection reagents (200 nM streptavidine-XL665 [Cisbio] and 1.5 nM anti-phosho-Serine antibody [Millipore, cat. #35-001] and 0.75 nM LANCE Eu-W 1024 labeled anti-mouse IgG antibody [Perkin Elmer]) in an aqueous EDTA-solution (100 mM EDTA, 0.1% (w/v) bovine serum albumin in 50 mM HEPES/NaOH pH 7.5).
as §2, with “HTRF” for “TR-FRET”

The subject of experiment [4] is phospho-AKT at S473 in KPL4 breast tumour cell line. Nature of the experiment: Cellular p-AKT1/2/3-S473 assay. The note with it: KPL4 cells, 2 hours treatment; median; read-out: pAKT-S743 median IC50. It counts as cell-based. How it is done: The molecular mechanism of action was investigated in a set of experiments to assess the inhibition of the PI3K-AKT-mTOR pathway in responsive cell lines such as KPL4 breast tumour cell line (PIK3CAH1047R, HER2O/E and hormone independent). The phospho-substrates of PI3K-AKT-mTOR axis were used as the read-outs to reflect pathway inhibition. Cells were seeded at 60-80% confluency per well in 96-well cell culture plates. After overnight incubation at 37° C. 5% CO2, cells were treated with compounds and vehicle at 37° C. for 2 hours. […] All measurements where at least done in duplicates and confirmed by independent repetition.
Alternatively pAKT-S473 was measured using the “Akt Duplex” of the MULTI-SPOT® Assay System (Fa. Meso Scale Discovery, Cat# N41100B-1) following manufacturers instructions. Each assay used 20 μg of protein extract and measured total AKT and p-AKT content simultaneously in one well. All measurements where at least done in duplicates and confirmed by independent repetition. Values for P-AKT are expressed as percentage of P-AKT level compared to total-AKT content of the extracts.

For `Cc1cn2nc(-c3ccc(C4(N)CCC4)cc3)c(-c3ccccc3)cc2n1` [Example 1-1, 1-[4-(2-Methyl-7-phenyl-imidazo[1,2-b]pyridazin-6-yl)-phenyl]-cyclobutylamine hydrochloride], the IC50 in experiment [1] is 10000 nM; in experiment [2] it was 20000 nM; in experiment [3], 17300 nM; in experiment [4], 10000 nM.

For the compound `N#Cc1cccc(-c2cnc3cc(-c4ccccc4)c(-c4ccc(C5(N)CCC5)cc4)nn23)c1` [Example 3-0, 3-{6-[4-(1-Amino-cyclobutyl)-phenyl]-7-phenyl-imidazo[1,2-b]pyridazin-3-yl}-benzonitrile], the half-maximal inhibitory concentration (IC50) came to 1710 nM in experiment [1], 82 nM in experiment [2], 5 nM in experiment [3] and 1550 nM in experiment [4].

In the case of `NC1(c2ccc(-c3nn4c(-c5cccc(CO)c5)cnc4cc3-c3ccccc3)cc2)CCC1` [Example 4-5, (3-{6-[4-(1-Amino-cyclobutyl)-phenyl]-7-phenyl-imidazo[1,2-b]pyridazin-3-yl}-phenyl)-methanol], the IC50 in experiment [1] is 1310 nM; in experiment [2], 37 nM; in experiment [3], 6 nM; in experiment [4] it was 30 nM.

Regarding `NC1(c2ccc(-c3nn4c(-c5ccc(CO)cc5)cnc4cc3-c3ccccc3)cc2)CCC1` [Example 4-6, (4-{6-[4-(1-Amino-cyclobutyl)-phenyl]-7-phenyl-imidazo[1,2-b]pyridazin-3-yl}-phenyl)-methanol formiate], the IC50 in experiment [1] was 1590 nM; in experiment [2], 123 nM; in experiment [3] it was 19 nM; in experiment [4] it was 30 nM.

For the compound `NC1(c2ccc(-c3nn4c(-c5ccc(S(N)(=O)=O)cc5)cnc4cc3-c3ccccc3)cc2)CCC1` [Example 4-7, 4-{6-[4-(1-Amino-cyclobutyl)-phenyl]-7-phenyl-imidazo[1,2-b]pyridazin-3-yl}-benzenesulfonamide hydrocloride], the IC50 came to 1750 nM in experiment [1], 151 nM in experiment [2], 47 nM in experiment [3] and 160 nM in experiment [4].

`NC1(c2ccc(-c3nn4c(Br)cnc4cc3-c3ccccc3)cc2)CCC1` [Example 4-8, 1-[4-(3-Bromo-7-phenyl-imidazo[1,2-b]pyridazin-6-yl)-phenyl]-cyclobutylamine hydrochloride]: the IC50 in experiment [1] stood at 2380 nM; in experiment [2], 264 nM; in experiment [3], 74 nM; in experiment [4], 110 nM.

Consider `NC1(c2ccc(-c3nn4c(-c5ccc(F)c(CO)c5)cnc4cc3-c3ccccc3)cc2)CCC1` [Example 4-9, (5-{6-[4-(1-Amino-cyclobutyl)-phenyl]-7-phenyl-imidazo[1,2-b]pyridazin-3-yl}-2-fluorophenyl)-methanol hydrochloride], for which the IC50 stood at 1560 nM in experiment [1], 92 nM in experiment [2], 9 nM in experiment [3] and 40 nM in experiment [4].

Consider `NC(=O)c1ccc(-c2cnc3cc(-c4ccccc4)c(-c4ccc(C5(N)CCC5)cc4)nn23)cc1` [Example 4-10, 4-{6-[4-(1-Amino-cyclobutyl)-phenyl]-7-phenyl-imidazo[1,2-b]pyridazin-3-yl}-benzamide hydrochloride], for which the 50% inhibitory concentration (IC50) in experiment [1] came to 1260 nM; in experiment [2], 118 nM; in experiment [3], 27 nM; in experiment [4] it was 70 nM.

On to `NC(=O)c1cccc(-c2cnc3cc(-c4ccccc4)c(-c4ccc(C5(N)CCC5)cc4)nn23)c1` [Example 4-11, 3-{6-[4-(1-Amino-cyclobutyl)-phenyl]-7-phenyl-imidazo[1,2-b]pyridazin-3-yl}-benzamide hydrochloride], for which the 50% inhibitory concentration (IC50) in experiment [1] turned out to be 1410 nM; in experiment [2] it was 68 nM; in experiment [3] it was 13 nM; in experiment [4], 20 nM.

As to `NC1(c2ccc(-c3nn4c(-c5cn[nH]c5)cnc4cc3-c3ccccc3)cc2)CCC1` [Example 4-12, 1-{4-[7-Phenyl-3-(1H-pyrazol-4-yl)-imidazo[1,2-b]pyridazin-6-yl]-phenyl}-cyclobutylamine], the IC50 in experiment [1] was determined as 550 nM; in experiment [2], 67 nM; in experiment [3], 9 nM; in experiment [4], 10 nM.
